Results published in US7332489B2, “Methods and compositions of novel triazine compounds” (Reddy US Therapeutics, Inc., priority 2003, dated 2008).
Read-outs that look alike come from different tables or passages of the source.

Legend:
TNF-α induced IL-6 = assay: TNF-α-induced IL-6 production determined by IL-6 ELISA; format: cell-based; details: for activity at 10 µM: Homo sapiens, 24 h; for % IL6 production compare to TNF stimulation of IL6 (100%), HAEC, IL6, @ 5 uM / % IL6 production compare to TNF stimulation of IL6 (100%), Compds tested @ 10 uM HAEC, IL6: TNF stimulated; for % IL6 production compare to TNF stimulation of IL6 (100%), HAEC, IL6, @ 5 uM: compound 5 uM (bracketed value); for % IL6 production compare to TNF stimulation of IL6 (100%), Compds tested @ 10 uM HAEC, IL6: compound 10 uM
Method in brief: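 Human aortic endothelial cells grown to ≥90% confluence, then treated with compounds and stimuli in serum-free medium with 0.2% albumin. Secreted IL-6 in collected media measured by sandwich ELISA (2 ug/ml capture, 200 ng/ml biotinylated detection antibody, streptavidin-HRP), read at 450 nm.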

endothelial cells = assay: Toxicity to endothelial cells when AGE stimulated; format: cell-based
Method: In general, to determine if there is cytotoxic activity associated with a compound, cells of a particular type, in a growing stage or a quiescient stage, are treated with the compound of interest. Various parameters of cell death or cessation are used to measure the effects of the compound. For example, the amount of nucleic acid or protein synthesis can be measured or visual observation of the state of the cells, such as release from the substrate, can be used to measure the state of the cells.
All treatments, compound-added and controls were carried out in serum free media containing 0.2% albumin. Media from all conditions were collected and used for IL-6 ELISA.

[1] = read-out: Inhibition of TNF-induced IL6 production
[2] = endothelial cells, AGE stimulated

COc1ccc(Nc2nc(NC(C)C)nc(N(C)C3CCNCC3)n2)cc1Cl [Compound 107, N^2-(3-chloro-4-methoxy-phenyl)-N^4-isopropyl-N^6-methyl-N^6-piperidin-4-yl-1,3,5-triazine-2,4,6-triamine]
% IL6 production compare to TNF stimulation of IL6 (100%), @ 5 uM (TNF-α induced IL-6; HAEC, 5 uM compound, TNF stimulation = 100%): 60 @ 5 uM % | activity at 10 µM (TNF-α induced IL-6; [1]): 50 to 75% | melting point: 129 °C

COc1ccc(Nc2nc(NCCCCCO)nc(N(C)C3CCNCC3)n2)cc1Cl [Compound 109, 5-[4-(3-chloro-4-methoxy-phenylamino)-6-(methyl-piperidin-4-yl-amino)-1,3,5-triazin-2-ylamino]-pentan-1-ol]
activity at 10 µM (TNF-α induced IL-6; read-out: % IL6 production compare to TNF stimulation of IL6 (100%), Compds tested @ 10 uM HAEC, IL6): 40% | activity at 10 µM (TNF-α induced IL-6; [1]): 25 to 50% | melting point: 101 °C

COc1ccc(Nc2nc(Nc3ccc(OC)c(Cl)c3)nc(OCC3CCCCC3)n2)cc1Cl [Compound 118, N,N′-Bis-(3-chloro-4-methoxy-phenyl)-6-cyclohexylmethoxy-1,3,5-triazine-2,4-diamine]
melting point: 188 °C

COc1ccc(Nc2nc(Nc3ccc(OC)c(Cl)c3)nc(NC3CCCCCC3)n2)cc1Cl [Compound 122, N,N′-Bis-(3-chloro-4-methoxy-phenyl)-N″-cycloheptyl-[1,3,5]triazine-2,4,6-triamine]
melting point: 183 °C

COc1ccc(Nc2nc(Cl)nc(Cl)n2)cc1F [Compound 124, (4,6-Dichloro-[1,3,5]triazin-2-yl)-(3-fluoro-4-methoxy-phenyl)-amine]
melting point: 134 °C

COc1ccc(Nc2nc(Cl)nc(NCC3CCCCC3)n2)cc1F [Compound 125, 6-Chloro-N-cyclohexylmethyl-N′-(3-fluoro-4-methoxy-phenyl)-[1,3,5]triazine-2,4-diamine]
melting point: 156 °C

CCN1CCCC1CNc1nc(NCC2CCCCC2)nc(Nc2ccc(OC)c(F)c2)n1 (stereo not shown) [Compound 126, N-Cyclohexylmethyl-N′-(1-ethyl-pyrrolidin-2-ylmethyl)-N″-(3-fluoro-4-methoxy-phenyl)-[1,3,5]triazine-2,4,6-triamine]
melting point: 72 °C

COc1ccc(Nc2nc(NC3CCCCCC3)nc(NC3CCN(Cc4ccccc4)CC3)n2)cc1Cl [Compound 134, N-(1-Benzyl-piperidin-4-yl)-N′-(3-chloro-4-methoxy-phenyl)-N″-cycloheptyl-[1,3,5]triazine-2,4,6-dianmine]
% IL6 production compare to TNF stimulation of IL6 (100%), HAEC, IL6, @ 5 uM (TNF-α induced IL-6; HAEC): 55% | % IL6 production compare to TNF stimulation of IL6 (100%), Compds tested @ 10 uM HAEC, IL6 (TNF-α induced IL-6; HAEC): total cell death | Toxic (AGE-treated) (endothelial cells; [2]): toxic

COc1ccc(Nc2nc(NC3CCCCCC3)nc(NC3CCNCC3)n2)cc1Cl [Compound 135, N^2-(3-chloro-4-methoxy-phenyl)-N^4-cycloheptyl-N^6-piperidin-4-yl-1,3,5-triazine-2,4,6-triamine]
% IL6 production compare to TNF stimulation of IL6 (100%), HAEC, IL6, @ 5 uM (TNF-α induced IL-6; HAEC): 60% | % IL6 production compare to TNF stimulation of IL6 (100%), Compds tested @ 10 uM HAEC, IL6 (TNF-α induced IL-6; HAEC): total cell death | Toxic (AGE-treated) (endothelial cells; [2]): toxic

CN1CCC(N(C)c2nc(Nc3ccc(O)c(Cl)c3)nc(NC3CCCCCC3)n2)CC1 [Compound 138, 2-Chloro-4-{4-cycloheptylamino-6-[methyl-(1-methyl-piperidin-4-yl)-amino]-[1,3,5]triazin-2-ylamino}-phenol]
% IL6 production compare to TNF stimulation of IL6 (100%), Compds tested @ 10 uM HAEC, IL6 (TNF-α induced IL-6; HAEC): toxic | Toxic (AGE-treated) (endothelial cells): toxic

COc1ccc(Nc2nc(NC3CCCCCC3)nc(N(C)C3CCNCC3)n2)cc1Cl [Compound 146, N^2-(3-chloro-4-methoxy-phenyl)-N^4-cycloheptyl-N^6-methyl-N^6-piperidin-4-yl-1,3,5-triazine-2,4,6-triamine]
melting point: 114 to 116 °C

COc1ccc(Nc2nc(O)nc(NC3CCCCCC3)n2)cc1Cl [Compound 147, 4-(3-Chloro-4-methoxy-phenylamino)-6-cycloheptylamino-1,3,5-triazin-2-ol]
melting point: > 310 °C

CCN1CCCC1CNc1nc(Nc2ccc(OC)c(Cl)c2)nc(NC2CN3CCC2CC3)n1 (stereo not shown) [Compound 148, N-(1-Aza-bicyclo[2.2.2]oct-3-yl)-N′-(3-chloro-4-methoxy-phenyl)-N″-(1-ethyl-pyrrolidin-2-ylmethyl)-[1,3,5]triazine-2,4,6-triamine]
% IL6 production compare to TNF stimulation of IL6 (100%), HAEC, IL6, @ 5 uM (TNF-α induced IL-6; HAEC): 60% | % IL6 production compare to TNF stimulation of IL6 (100%), Compds tested @ 10 uM HAEC, IL6 (TNF-α induced IL-6; HAEC): total cell death | Toxic (AGE-treated) (endothelial cells): toxic

COc1ccc(Nc2nc(NC3CCCCCC3)nc(N(C)C3CCNCC3)n2)cc1F [Compound 159, N^2-Cycloheptyl-N^4-(3-fluoro-4-methoxy-phenyl)-N^6-methyl-N^6-piperidin-4-yl-1,3,5-triazine-2,4,6-triamine]
% IL6 production compare to TNF stimulation of IL6 (100%), HAEC, IL6, @ 5 uM (TNF-α induced IL-6; HAEC): total cell death @ 5 and 10 | % IL6 production compare to TNF stimulation of IL6 (100%), Compds tested @ 10 uM HAEC, IL6 (TNF-α induced IL-6; HAEC): total cell death @ 5 and 10 | Toxic (AGE-treated) (endothelial cells): toxic

COc1ccc(Nc2nc(NC3CCCCCC3)nc(OC3CCCN(C(C)=O)C3)n2)cc1Cl (stereo not shown) [Compound E20, 1-[3-{4-(3-chloro-4-methoxyanilino)-6-cycloheptylamino-1,3,5-triazine-2-yloxy}piperidino]-1-ethanone]
melting point: 138 to 140 °C

COc1ccc(Nc2nc(NC3CCCCCC3)nc(OC(C)C)n2)cc1Cl [Compound E21, N^2-(3-chloro-4-methoxyphenyl)-N^4-cycloheptyl-6-isopropoxy-1,3,5-triazine-2,4-diamine]
melting point: 136 to 138 °C

COc1ccc(Nc2nc(NC3CCCCCC3)nc(OCC3CCCN3)n2)cc1Cl (stereo not shown) [Compound E22, N^2-(3-chloro-4-methoxyphenyl)-N^4-cycloheptyl-6-(2-azolanylmethoxy)-1,3,5-triazine-2,4-diamine]
melting point: 84 to 86 °C

COc1ccc(Nc2nc(NC3CCCCCC3)nc(Oc3ccccc3F)n2)cc1Cl [Compound E28, N^2-(3-chloro-4-methoxyphenyl)-N^4-cycloheptyl-6-(2-fluorophenoxy)-1,3,5-triazine-4,2-diamine]
melting point: 98 to 100 °C
